Data set [1] can be described thus: Oral pharmacokinetics of CSE constituents in rat plasma (UFLC-MS/MS). Format: in vivo, Sprague–Dawley rats. Conditions: single oral CSE 40 mg/kg, n = 6, mean ± SEM. The method, then:
The PK parameters were calculated by non-compartmental analysis. The PK parameters, such as maximum plasma concentration (Cmax) and the time to reach the maximum plasma concentration (Tmax), were derived directly from the experimental data. The trapezoidal equation calculated the areas under the plasma concentration-time curves from 0 to the time of the last quantifiable concentration (AUC0−t). The AUC was extrapolated to infinity AUC0-∞ using Ct/Kel, where Ct is the last measured MET concentration. Kel is the elimination rate constant determined from the terminal slope of the log concentration-time plot. The Kel was obtained from the linear regression curve slope by fitting the terminal concentrations’ natural logarithms versus time. The terminal elimination half-life (t1/2) was calculated by 0.693/Kel. The clearance (CL) was calculated as the quotient of the dose (D) and AUC0−∞. All values were expressed as mean ± SEM.
Male Sprague–Dawley rats (250–300 g) were purchased from Crystal Biological Solution, Pune, Maharashtra, India. The animal studies were sanctioned by the Animal Ethics Committee of Crystal Biological Solution, Pune. It was carried out following the Animal Ethics Procedures and Guidelines of Control and Supervision of Experiments on Animals (CPCSEA) committee requirements. Animals were housed 3–4 per cage in rooms with constant temperature (25 ± 2 °C), humidity (50 ± 20%), and 12 h dark-light cycle. All animals in the oral group fasted overnight before the dosing, and food was provided 8 h post-dose, and water was ad libitum. The investigational CSE was fed orally to an individual rat as per its body weight.
The UFLC-MS/MS analysis was performed on a Shimadzu UFLC system (Kyoto, Japan) consisting of a DGU-20A5R degasser, LC-30AD pump, SIL-30AC autosampler, CTO-20AC column oven. The chromatographic separation was carried out in a single analytical run divided into loading and eluting phases by alternating the electronic valve. At the loading phase (−1–0 min), the auto-sampler was responsible for injecting 50 µL of the sample. The LC-30AD pump was responsible for delivering water containing 0.1% formic acid to the pre-column (Phenomenex Security Guard ULTRA with C8 Cartridge) at 0.8 mL/min to remove protein and retain analytes. At the eluting phase (0–12 min), the retained components were flushed from the pre-column into the analytical column (Dr. Maisch GmbH Reprosil Gold XBD C8, 50 mm × 4.6 mm, i.d., 1.8 µm) eluting as per time programmed gradient. The flow rate of the mobile phase was 0.8 mL/min. The mobile phase consists of a mixture of water containing 0.1% formic acid (%v/v) (A) and 100% acetonitrile (B). The gradient elution program was carried out for chromatographic separation: 0.01–1.91 min, 20% B; 1.91–5.91 min, 2090% B; 5.91–6.91 min, 90–80% B; 6.91–8.24 min, 80–20% B; and 8.24–12 min, 20% B. The column oven temperature was set at 30 °C. The MS/MS analysis was carried out on an LCMS-8045 triple-quadrupole mass spectrometer (Shimadzu, Kyoto, Japan) equipped with positive and negative electrospray ionization (ESI) interfaces using the MRM mode. The compound and source dependent parameters were defined as follows: nitrogen was used as nebulizing and drying gas; argon was used as the collision gas. Quadruple voltage was set at Q1 RF gain: 4998 Q1 RF offset 4990 and Q1 post-rod bias: −5.0 V CID CELL exit lens: −4.0 V, interface: ESI, interface temperature: 350 °C, desolvation line (DL) temperature: 250 °C, nebulizing gas flow: 2.50 L/min, heating gas flow: 10.00 L/min heat block: 300 °C; drying gas flow: 10.00 L/min.
An aliquot of 45 µL of rat plasma was spiked with each 5 µL of IS1 and IS2, and 200 µL of methanol was added, vortexed for 1–2 min, then centrifuged for 10 min at 2000 RPM. Collect the supernatant into HPLC vials and injected it into the UFLC-MS/MS system for analysis. […]

A short description of data set [2]: Stability of analytes in rat plasma (autosampler, room temperature, freeze-thaw). The format is in vitro ADME. Particulars: for analyte stability in plasma: LQC and HQC, processed plasma samples, stable under restricted storage conditions; for Room Temperature Stability (%, mean ± SD) / Autosampler Stability (%, mean ± SD) / Freeze-Thaw Stability (%, mean ± SD): rat plasma, n = 6; for Room Temperature Stability (%, mean ± SD): ambient temperature 4 h; for Autosampler Stability (%, mean ± SD): autosampler 8 °C for 24 h; for Freeze-Thaw Stability (%, mean ± SD): three freeze-thaw cycles at −20 ± 4 °C. How it is done: The stability was performed at different sets of working and storage conditions. […] The stability conditions of the method studied were at ambient temperature for 4 h (room-temperature stability), in the autosampler at 8 °C conditions for 24 h (autosampler stability), and with three freeze-thaw cycles at −20 ± 4 °C condition (freeze-thaw stability). The samples were prudent to be stable if the measured concentration was within ±15% of the nominal concentration.

In data set [3] the test system is mice. Further details: method as in PMID 28471166, PMID 31459089, PMID 33404280. Particulars: by inducing autophagy mediated by AMPK pathway activation; cited from earlier work.
[4] abbreviates: male, Sprague-Dawley, rat, plasma, po, 40 mg/kg.
The mark [5] stands for this setting: male, Sprague-Dawley, rat, plasma, po, 40 mg/kg, read-out: Tmax.

Read-outs that look alike come from different tables or passages of the source. Some results are limits rather than exact numbers.

The half-life is the time in which the quantity being followed falls by half. A low value points to fast loss. A word on the Tmax: it is the time at which the peak concentration occurs. As a reminder, the AUC(0-inf) is total exposure, with the tail of the curve extrapolated. The low end stands for less exposure, the high end for more exposure. By AUC(0-t) is commonly meant exposure summed from dosing to a finite time, without extrapolation to infinity. In general, Cmax refers to the maximum level reached in the sampled fluid or tissue. Compound `CC(=C/C=C/C=C(C)/C=C/C=C(\C)C(=O)OC1OC(COC2OC(CO)C(O)C(O)C2O)C(O)C(O)C1O)/C=C/C=C(\C)C(=O)OC1OC(COC2OC(CO)C(O)C(O)C2O)C(O)C(O)C1O` (stereo not drawn) [C4C, cis-4-GG-crocin] showed a half-life in data set [1] (setting [4]) of 1.57 ± 1.57 h. Besides, the Tmax in data set [1] (setting [5]) amounted to 3.25 ± 1.05 h. In data set [1] (male, Sprague-Dawley), this compound returned an AUC(0-inf) of 407 ± 187 ng·h/mL, an AUC(0-t) of 396 ± 113 ng·h/mL and a Cmax of 86.1 ± 15.7 ng/mL. In data set [1], the CL is listed as 326.37 ± 445.89 mL/h/kg and the Vd was determined as 4.29 ± 1.94 L/kg.
In data set [1] (setting [4]), `CC1=C(C=O)C(C)(C)C[C@H](O[C@@H]2O[C@H](CO)[C@@H](O)[C@H](O)[C@H]2O)C1` [PIC, picrocrocin] had a half-life of 0.793 ± 0.078 h. Further, the Tmax in data set [1] (setting [5]) was determined as 0.67 h. In data set [1] (male, Sprague-Dawley), this compound displayed an area under the curve AUC(0-inf) of 3820 ± 257 ng·h/mL, an AUC(0-t) of 3690 ± 274 ng·h/mL and a Cmax of 2720 ± 231 ng/mL. Further, in data set [1], the CL turned out to be 1935.88 ± 123.45 mL/h/kg, the Tmax came out at 0.792 ± 0.10 h and the Vd amounted to 2.258 ± 0.3168 L/kg. For the same compound, the “analyte stability in plasma” value in data set [2] is listed as “stable”. In data set [2] (nominal 30.00 ng/mL (LQC)), the “Room Temperature Stability (%, mean ± SD)” value is 30.40 ± 0.92 ng/mL; the “Autosampler Stability (%, mean ± SD)” value amounted to 29.52 ± 1.26 ng/mL; the “Freeze-Thaw Stability (%, mean ± SD)” value worked out at 29.98 ± 1.66 ng/mL. Moreover, in data set [2] (nominal 2400.00 ng/mL (HQC)), the “Room Temperature Stability (%, mean ± SD)” value was found to be 2406.19 ± 94.01 ng/mL; the “Autosampler Stability (%, mean ± SD)” value is 2463.69 ± 113.42 ng/mL; the “Freeze-Thaw Stability (%, mean ± SD)” value worked out at 2498.53 ± 111.53 ng/mL.
On to `CC1=C(C=O)C(C)(C)CC=C1` [SAF, safranal], for which, in data set [2], the “analyte stability in plasma” value was “stable”.
Compound `CC(/C=C/C=C(\C)C(=O)OC1OC(CO)C(O)C(O)C1O)=C\C=C\C=C(C)\C=C\C=C(/C)C(=O)OC1OC(CO)C(O)C(O)C1O` (stereo not drawn) [T2C, trans-2-gg-crocin] gave a half-life in data set [1] (setting [4]) of 5.75 ± 0.73 h. Besides, the Tmax in data set [1] (setting [5]) was 4.34 ± 0.51 h. In data set [1] (male, Sprague-Dawley), this compound came in with an AUC(0-inf) of 1680 ± 238 ng·h/mL, an AUC(0-t) of 1530 ± 197 ng·h/mL and a Cmax of 160 ± 15.2 ng/mL. Further, in data set [1], the CL amounted to 234.77 ± 31.12 mL/h/kg and the Vd is given as 2.006 ± 0.457 L/kg.
As for `CC(/C=C/C=C(\C)C(=O)OC1OC(CO)C(O)C(O)C1O)=C\C=C\C=C(C)\C=C\C=C(/C)C(=O)OC1OC(COC2OC(CO)C(O)C(O)C2O)C(O)C(O)C1O` (stereo not drawn) [T3C, trans-3-Gg-crocin], the half-life in data set [1] (setting [4]) is 4.6 ± 2.74 h. Further, in data set [1] (setting [5]), the time of peak concentration (Tmax) stood at 3.5 ± 1.09 h. Moreover, in data set [1] (male, Sprague-Dawley), the AUC(0-inf) came out at 55.5 ± 31.2 ng·h/mL, the AUC(0-t) is 20.4 ± 9.64 ng·h/mL and the peak level (Cmax) was 7.59 ± 4.71 ng/mL. For the same compound, in data set [1], the CL was 114,958.33 ± 71,000.46 mL/h/kg and the Vd is on record as 325.573 ± 13.099 L/kg.
With `CC(/C=C/C=C(\C)C(=O)OC1OC(COC2OC(CO)C(O)C(O)C2O)C(O)C(O)C1O)=C\C=C\C=C(C)\C=C\C=C(/C)C(=O)OC1OC(COC2OC(CO)C(O)C(O)C2O)C(O)C(O)C1O` (stereo not drawn) [T4C, trans-4-GG-crocin], in data set [1] (setting [4]), the half-life is 3.36 ± 1 h. Besides, the Tmax in data set [1] (setting [5]) was found to be 3.5 ± 0.57 h. In data set [1] (male, Sprague-Dawley), this compound returned an AUC(0-inf) of 370 ± 75.6 ng·h/mL, an AUC(0-t) of 277 ± 67.7 ng·h/mL and a Cmax of 49.3 ± 11.2 ng/mL. For the same compound, in data set [1], the CL is 19,568.35 ± 4835.41 mL/h/kg and the Vd worked out at 69.250 ± 16.150 L/kg.
`CC(/C=C/C=C(\C)C(=O)O)=C\C=C\C=C(C)\C=C\C=C(/C)C(=O)O` [TCT, trans crocetin]: in data set [1] (setting [4]), the half-life was over 11 h. For the same compound, in data set [1] (setting [5]), the Tmax worked out at 6.83 ± 1.68 h. In data set [1] (male, Sprague-Dawley), this compound registered an AUC(0-inf) of 30700 ng·h/mL, an AUC(0-t) of 23600 ng·h/mL and a Cmax of 2080 ± 374 ng/mL. Besides, the Tmax in data set [1] is listed as 6.84 ± 1.69 h. Further, in data set [3], the memory function result is recorded as “improved memory function”. The “analyte stability in plasma” value in data set [2] was “stable”.

The values are drawn from article PMC8005090, “Bioanalytical Method Development and Validation Study of Neuroprotective Extract of Kashmiri Saffron Using Ultra-Fast Liquid Chromatography-Tandem Mass Spectrometry (UFLC-MS/MS): In Vivo Pharmacokinetics of Apocarotenoids and Carotenoids” (Molecules, 2021).
